Assay results as given in US20080181866A1, “Amido Anti-viral Compounds” (Genelabs Technologies, Inc., priority 2006, published 2008).

Tested on: HCV replication
Assay: HCV replicon assay (luciferase) in ET (Huh-lucubineo-ET) cell line
Format: cell-based
Conditions: Hepatitis C virus, tested at 5 μM; ET replicon cells; luciferase activity measured 48-72 hours later; relative to no compound control
Procedure: A cell line, ET (Huh-lucubineo-ET) was used for screening of compounds of the present invention for inhibiting HCV replication. The ET cell line was stably transfected with RNA transcripts harboring a I389luc-ubi-neo/NS3-3′/ET; replicon with firefly luciferase-ubiquitin-neomycin phosphotransferase fusion protein and EMCV-IRES driven NS3-5B polyprotein containing the cell culture adaptive mutations (E1202G; T12801; K1846T) (Krieger at al, 2001 and unpublished). The ET cells were grown in DMEM (Dulbeco's Modified Eagle's Medium), supplemented with 10% fetal calf serum, 2 mM Glutamine, Penicillin (100 IU/mL)/Streptomycin (100 μg/mL), 1× nonessential amino acids, and 250 μg/mL G418 (“Geneticin”). They were all available through Life Technologies (Bethesda, Md.). The cells were plated at 0.5-1.0×10^4 cells/well in the 96 well plates and incubated for 24 hrs before adding testing compounds. Then the compounds were added to the cells to achieve a final concentration of 0.1 nM to 50 μM and a final DMSO concentration of 0.5%. Luciferase activity were measured 48-72 hours later by adding a lysis buffer and the substrate (Catalog number Glo-lysis buffer E2661 and Bright-Glo luciferase system E2620 Promega, Madison, Wis.). Cells should not be too confluent during the assay. Percent inhibition of replication was plotted relative to no compound control. Under the same condition, cytotoxicity of the compounds was determined using cell proliferation reagent, WST-1 (Roche, Germany). The compounds showing antiviral activities, but no significant cytotoxicities were chosen to determine EC50 and TC50. For these determinations, a 10 point 2-fold serial dilution for each compound was used, which spans a concentration range of 1000 fold. EC50 and similarly TC50 values were calculated by fitting % inhibition at each concentration to the following equation:
% inhibition=100%/[(IC50/[I])^b+1]
where b is Hill's coefficient.
In some preferred embodiments compounds of Formula I will have a % inhibition of at least 20% when tested at 5 μM. In other embodiments the compounds of Formula I will have a % inhibition of at least 50% when tested at 5 μM.

Row | Structure (SMILES) | inhibition at 5 µM [%]
1 | O=C(NC1CC1)c1ccc(-c2csc(NC(=O)[C@@H]3CSC(CC4CCOCC4)N3C(=O)OCc3ccccc3)n2)cc1 (mixture of isomers) [Compound 7004, (R)-4-[4-(4-Cyclopropylcarbamoyl-phenyl)-thiazol-2-ylcarbamoyl]-2-(tetrahydro-pyran-4-ylmethyl)-thiazolidine-3-carboxylic acid benzyl ester] | 99.9
2 | O=C(NC1CC1)c1ccc(-c2csc(NC(=O)[C@@H]3CSC(c4ccnc5ccccc45)N3C(=O)OCc3ccccc3)n2)cc1 (mixture of isomers) [Compound 7007, (R)-4-[4-(4-Cyclopropylcarbamoyl-phenyl)-thiazol-2-ylcarbamoyl]-2-quinolin-4-yl-thiazolidine-3-carboxylic acid benzyl ester] | 100
3 | O=C(NC1CC1)c1ccc(-c2csc(NC(=O)[C@@H]3CSC(c4ccncc4F)N3C(=O)OCc3ccccc3)n2)cc1 (mixture of isomers) [Compound 7008, (R)-4-[4-(4-Cyclopropylcarbamoyl-phenyl)-thiazol-2-ylcarbamoyl]-2-(3-fluoro-pyridin-4-yl)-thiazolidine-3-carboxylic acid benzyl ester] | 100
4 | O=C(NC1CC1)c1ccc(-c2csc(NC(=O)[C@@H]3CSC(c4ccc(F)cc4)N3C(=O)OCc3ccccc3)n2)cc1 (mixture of isomers) [Compound 7013, (R)-4-[4-(4-Cyclopropylcarbamoyl-phenyl)-thiazol-2-ylcarbamoyl]-2-(4-fluoro-phenyl)-thiazolidine-3-carboxylic acid benzyl ester] | 99.7
5 | O=C(O)c1ccc(C2SC[C@@H](C(=O)Nc3nc(-c4ccc(C(=O)NC5CC5)cc4)cs3)N2C(=O)OCc2ccccc2)cc1 (mixture of isomers) [Compound 7014, (R)-2-(4-Carboxy-phenyl)-4-[4-(4-cyclopropylcarbamoyl-phenyl)-thiazol-2-ylcarbamoyl]-thiazolidine-3-carboxylic acid benzyl ester] | 97.7
6 | O=C(NC1CC1)c1ccc(-c2csc(NC(=O)[C@@H]3CSC(c4cncs4)N3C(=O)OCc3ccccc3)n2)cc1 (mixture of isomers) [Compound 7015, (R)-4-[4-(4-Cyclopropylcarbamoyl-phenyl)-thiazol-2-ylcarbamoyl]-4,5-dihydro-[2,5′]bithiazolyl-3-carboxylic acid benzyl ester] | 100
7 | COc1cccc(C2SC[C@@H](C(=O)Nc3nc(-c4ccc(C(=O)NC5CC5)cc4)cs3)N2C(=O)OCc2ccccc2)c1 (mixture of isomers) [Compound 7016, (R)-4-[4-(4-Cyclopropylcarbamoyl-phenyl)-thiazol-2-ylcarbamoyl]-2-(3-methoxy-phenyl)-thiazolidine-3-carboxylic acid benzyl ester] | 98.5
8 | N#Cc1ccc(C2SC[C@@H](C(=O)Nc3nc(-c4ccc(C(=O)NC5CC5)cc4)cs3)N2C(=O)OCc2ccccc2)cc1 (mixture of isomers) [Compound 7017, (R)-2-(4-Cyano-phenyl)-4-[4-(4-cyclopropylcarbamoyl-phenyl)-thiazol-2-ylcarbamoyl]-thiazolidine-3-carboxylic acid benzyl ester] | 100
9 | O=C(NC1CC1)c1ccc(-c2csc(NC(=O)[C@@H]3CSC(C4CCCNC4)N3C(=O)OCc3ccccc3)n2)cc1 (mixture of isomers) [Compound 7021, (R)-4-[4-(4-Cyclopropylcarbamoyl-phenyl)-thiazol-2-ylcarbamoyl]-2-piperidin-3-yl-thiazolidine-3-carboxylic acid benzyl ester] | 100
10 | O=C(NC1CC1)c1ccc(-c2csc(NC(=O)[C@@H]3CSC(c4cncnc4)N3C(=O)OCc3ccccc3)n2)cc1 (mixture of isomers) [Compound 7022, (R)-4-[4-(4-Cyclopropylcarbamoyl-phenyl)-thiazol-2-ylcarbamoyl]-2-pyrimidin-5-yl-thiazolidine-3-carboxylic acid benzyl ester] | 100
11 | O=C(NC1CC1)c1ccc(-c2csc(NC(=O)[C@@H]3CSC(C4CCOCC4)N3C(=O)OCc3ccccc3)n2)cc1 (mixture of isomers) [Compound 7025, (R)-4-[4-(4-Cyclopropylcarbamoyl-phenyl)-thiazol-2-ylcarbamoyl]-2-(tetrahydro-pyran-4-yl)-thiazolidine-3-carboxylic acid benzyl ester] | 100
12 | O=C(NC1CC1)c1ccc(-c2csc(NC(=O)[C@@H]3CSC(c4ccnc(Cl)c4)N3C(=O)OCc3ccccc3)n2)cc1 (mixture of isomers) [Compound 7029, (R)-2-(2-Chloro-pyridin-4-yl)-4-[4-(4-cyclopropylcarbamoyl-phenyl)-thiazol-2-ylcarbamoyl]-thiazolidine-3-carboxylic acid benzyl ester] | 99.8
13 | COc1ccc(C2SC[C@@H](C(=O)Nc3nc(-c4ccc(C(=O)NC5CC5)cc4)cs3)N2C(=O)OCc2ccccc2)cc1 (mixture of isomers) [Compound 7030, (R)-4-[4-(4-Cyclopropylcarbamoyl-phenyl)-thiazol-2-ylcarbamoyl]-2-(4-methoxy-phenyl)-thiazolidine-3-carboxylic acid benzyl ester] | 99.9
14 | O=C(NC1CC1)c1ccc(-c2csc(NC(=O)[C@@H]3CSC(c4ccncc4)N3C(=O)OCc3ccccc3)n2)cc1 (mixture of isomers) [Compound 7031, (R)-4-[4-(4-Cyclopropylcarbamoyl-phenyl)-thiazol-2-ylcarbamoyl]-2-pyridin-4-yl-thiazolidine-3-carboxylic acid benzyl ester] | 99.8
15 | N#Cc1cccc(C2SC[C@@H](C(=O)Nc3nc(-c4ccc(C(=O)NC5CC5)cc4)cs3)N2C(=O)OCc2ccccc2)c1 (mixture of isomers) [Compound 7033, (R)-2-(3-Cyano-phenyl)-4-[4-(4-cyclopropylcarbamoyl-phenyl)-thiazol-2-ylcarbamoyl]-thiazolidine-3-carboxylic acid benzyl ester] | 100
16 | O=C(O)c1cccc(C2SC[C@@H](C(=O)Nc3nc(-c4ccc(C(=O)NC5CC5)cc4)cs3)N2C(=O)OCc2ccccc2)c1 (mixture of isomers) [Compound 7034, (R)-2-(3-Carboxy-phenyl)-4-[4-(4-cyclopropylcarbamoyl-phenyl)-thiazol-2-ylcarbamoyl]-thiazolidine-3-carboxylic acid benzyl ester] | 98.7
17 | O=C(NC1CC1)c1ccc(-c2csc(NC(=O)[C@@H]3CSC(C4CCCCC4)N3C(=O)OCc3ccccc3)n2)cc1 (mixture of isomers) [Compound 7035, (R)-2-Cyclohexyl-4-[4-(4-cyclopropylcarbamoyl-phenyl)-thiazol-2-ylcarbamoyl]-thiazolidine-3-carboxylic acid benzyl ester] | 98.9
18 | O=C(NC1CC1)c1ccc(-c2csc(NC(=O)[C@@H]3CSC(c4cnco4)N3C(=O)OCc3ccccc3)n2)cc1 (mixture of isomers) [Compound 7036, (R)-4-[4-(4-Cyclopropylcarbamoyl-phenyl)-thiazol-2-ylcarbamoyl]-2-oxazol-5-yl-thiazolidine-3-carboxylic acid benzyl ester] | 99.8
19 | O=C(NC1CC1)c1ccc(-c2csc(NC(=O)[C@@H]3CSC(c4ccccc4F)N3C(=O)OCc3ccccc3)n2)cc1 (mixture of isomers) [Compound 7037, (R)-4-[4-(4-Cyclopropylcarbamoyl-phenyl)-thiazol-2-ylcarbamoyl]-2-(2-fluoro-phenyl)-thiazolidine-3-carboxylic acid benzyl ester] | 100
20 | O=C(NC1CC1)c1ccc(-c2csc(NC(=O)[C@@H]3CSC(C4CCNCC4)N3C(=O)OCc3ccccc3)n2)cc1 (mixture of isomers) [Compound 7042, (R)-4-[4-(4-Cyclopropylcarbamoyl-phenyl)-thiazol-2-ylcarbamoyl]-2-piperidin-4-yl-thiazolidine-3-carboxylic acid benzyl ester] | 100
21 | COc1ccccc1C1SC[C@@H](C(=O)Nc2nc(-c3ccc(C(=O)NC4CC4)cc3)cs2)N1C(=O)OCc1ccccc1 (mixture of isomers) [Compound 7047, (R)-4-[4-(4-Cyclopropylcarbamoyl-phenyl)-thiazol-2-ylcarbamoyl]-2-(2-methoxy-phenyl)-thiazolidine-3-carboxylic acid benzyl ester] | 99.6
22 | O=C(NC1CC1)c1ccc(-c2csc(NC(=O)[C@@H]3CSC(c4cccc(F)c4)N3C(=O)OCc3ccccc3)n2)cc1 (mixture of isomers) [Compound 7048, (R)-4-[4-(4-Cyclopropylcarbamoyl-phenyl)-thiazol-2-ylcarbamoyl]-2-(3-fluoro-phenyl)-thiazolidine-3-carboxylic acid benzyl ester] | 99.3
23 | O=C(NC1CC1)c1ccc(-c2csc(NC(=O)[C@@H]3CSC(c4ccnc(O)c4)N3C(=O)OCc3ccccc3)n2)cc1 (mixture of isomers) [Compound 7049, (R)-4-[4-(4-Cyclopropylcarbamoyl-phenyl)-thiazol-2-ylcarbamoyl]-2-(2-hydroxy-pyridin-4-yl)-thiazolidine-3-carboxylic acid benzyl ester] | 98.8
